Read-outs that look alike come from different tables or passages of the source.
Assays:
[1] = biological target: GST-RIPK2 fusion protein (human RIPK2 amino acids 1-310) (Homo sapiens (Human), UniProt O43353); assay: RIPK2 binding competition assay (TR-FRET, Tracer 199)
[2] = test system: NF-κB pathway (SEAP) in THP1-Dual cells; assay: THP-1 Dual cell SEAP assay (L18-MDP stimulated); type: cell-based; settings: read-out: NFkB THP1 IC50
[3] = read-out: RIPK2 IC50, RIPK2 binding competition assay

GST-RIPK2 fusion protein (human RIPK2 amino acids 1-310), sequence (O43353 1-310): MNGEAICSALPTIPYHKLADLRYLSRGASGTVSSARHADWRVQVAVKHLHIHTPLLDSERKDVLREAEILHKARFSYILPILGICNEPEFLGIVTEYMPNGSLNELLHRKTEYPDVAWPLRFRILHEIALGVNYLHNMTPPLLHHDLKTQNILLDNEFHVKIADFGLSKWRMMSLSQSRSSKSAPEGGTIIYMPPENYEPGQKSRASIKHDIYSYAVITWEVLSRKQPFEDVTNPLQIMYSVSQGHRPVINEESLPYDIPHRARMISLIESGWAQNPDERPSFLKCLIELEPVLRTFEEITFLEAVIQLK

Row | IC50 [1] [nM] | IC50 ([2]; Homo sapiens, THP1-Dual) [nM] | IC50 [2] [nM] | Compound | IC50 [1, 3] [nM]
1 | 2.5 to 20 | 250 to 1000 |  | CCCS(=O)(=O)Nc1cc(-c2cnc3cc(OC)c(S(=O)(=O)C(C)(C)C)cn23)cc(F)c1C [Example 262, N-(5-(6-(tert-butylsulfonyl)-7-methoxyimidazo[1,2-a]pyridin-3-yl)-3-fluoro-2-methylphenyl)propane-1-sulfonamide] | 
2 | 2.5 to 20 | 250 to 1000 |  | CCCS(=O)(=O)Nc1c(F)c(-c2cnc3cc(OC)c(S(=O)(=O)C(C)(C)C)cn23)cc(F)c1OC [Example 263, N-(3-(6-(tert-butylsulfonyl)-7-methoxyimidazo[1,2-a]pyridin-3-yl)-2,5-difluoro-6-methoxyphenyl)propane-1-sulfonamide] | 
3 | 2.5 to 20 | 50 to 250 |  | CCCS(=O)(=O)Nc1cc(-c2cnc3cc(OC)c(S(=O)(=O)C(C)(C)C)cn23)cnc1OC [Example 265, N-(5-(6-(tert-butylsulfonyl)-7-methoxyimidazo[1,2-a]pyridin-3-yl)-2-methoxypyridin-3-yl)propane-1-sulfonamide] | 
4 | 1 to 2.5 | 250 to 1000 |  | CCCS(=O)(=O)Nc1cc(-c2cnc3cc(OC)c(S(=O)(=O)C(C)(C)C)cn23)cc(F)c1F [Example 266, N-(5-(6-(tert-butylsulfonyl)-7-methoxyimidazo[1,2-a]pyridin-3-yl)-2,3-difluorophenyl)propane-1-sulfonamide] | 
5 | 1 to 2.5 | 250 to 1000 |  | CCCS(=O)(=O)Nc1cc(-c2cnc3cc(OC)c(S(=O)(=O)C(C)(C)C)cn23)cc(OC)c1F [Example 267, N-(5-(6-(tert-butylsulfonyl)-7-methoxyimidazo[1,2-a]pyridin-3-yl)-2-fluoro-3-methoxyphenyl)propane-1-sulfonamide] | 
6 | 1 to 2.5 | 50 to 250 |  | CCCS(=O)(=O)Nc1cc(-c2cnc3cc(OC)c(S(=O)(=O)C(C)(C)C)cn23)cc(C)c1OC [Example 268, N-(5-(6-(tert-butylsulfonyl)-7-methoxyimidazo[1,2-a]pyridin-3-yl)-2-methoxy-3-methylphenyl)propane-1-sulfonamide] | 
7 | 1 to 2.5 | 250 to 1000 |  | CCCS(=O)(=O)Nc1cccc(-c2cnc3cc(OC)c(S(=O)(=O)C(C)(C)C)cn23)c1 [Example 269, N-(3-(6-(tert-butylsulfonyl)-7-methoxyimidazo[1,2-a]pyridin-3-yl)phenyl)propane-1-sulfonamide] | 
8 | 1 to 2.5 | 250 to 1000 |  | CCCS(=O)(=O)Nc1cc(-c2cnc3cc(OC)c(S(=O)(=O)C(C)(C)C)cn23)cc(F)c1OCC [Example 270, N-(5-(6-(tert-butylsulfonyl)-7-methoxyimidazo[1,2-a]pyridin-3-yl)-2-ethoxy-3-fluorophenyl)propane-1-sulfonamide] | 
9 | 1 to 2.5 | < 50 |  | CCCS(=O)(=O)Nc1cc(-c2cnc3cc(OC)c(S(=O)(=O)C(C)(C)C)cn23)ccc1OC(F)F [Example 271, N-(5-(6-(tert-butylsulfonyl)-7-methoxyimidazo[1,2-a]pyridin-3-yl)-2-(difluoromethoxy)phenyl) propane-1-sulfonamide] | 
10 | < 1 | 50 to 250 |  | CCCS(=O)(=O)Nc1cc(-c2cnc3cc(OC)c(S(=O)(=O)C4CC4)cn23)cc(OC)c1OC [Example 274, N-(5-(6-(cyclopropylsulfonyl)-7-methoxyimidazo[1,2-a]pyridin-3-yl)-2,3-dimethoxyphenyl)propane-1-sulfonamide] | 
11 | < 1 | < 50 |  | CCCS(=O)(=O)Nc1cc(-c2cnc3cc(OC)c(S(=O)(=O)C(C)(C)C)cn23)cc(F)c1OC [Example 275, N-(5-(6-(tert-butylsulfonyl)-7-methoxyimidazo[1,2-a]pyridin-3-yl)-3-fluoro-2-methoxyphenyl)propane-1-sulfonamide] | 
12 |  |  | 250 to 1000 | CCS(=O)(=O)Nc1cccc(-c2cnc3cc(OC)c(S(=O)(=O)C(C)(C)C)cn23)c1 [Example 276, N-(3-(6-(tert-butylsulfonyl)-7-methoxyimidazo[1,2-a]pyridin-3-yl)phenyl)ethanesulfon-amide] | 2.5 to 20
13 | 2.5 to 20 | < 50 |  | COc1cc2ncc(-c3cccc(NS(=O)(=O)C(C)(C)C)c3)n2cc1S(=O)(=O)C(C)(C)C [Example 277, N-(3-(6-(tert-butylsulfonyl)-7-methoxyimidazo[1,2-a]pyridin-3-yl)phenyl)-2-methylpropane-2-sulfonamide] | 
14 | 2.5 to 20 | 250 to 1000 |  | COc1cc2ncc(-c3cccc(NS(=O)(=O)C(C)C)c3)n2cc1S(=O)(=O)C(C)(C)C [Example 278, N-(3-(6-(tert-butylsulfonyl)-7-methoxyimidazo[1,2-a]pyridin-3-yl)phenyl)propane-2-sulfonamide] | 
15 | < 1 | < 50 |  | COc1cc2ncc(-c3cc(F)c(OC)c(NS(=O)(=O)CC(C)C)c3)n2cc1S(=O)(=O)C(C)(C)C [Example 279, N-(5-(6-(tert-butylsulfonyl)-7-methoxyimidazo[1,2-a]pyridin-3-yl)-3-fluoro-2-methoxyphenyl)-2-methylpropane-1-sulfonamide] | 
16 | 1 to 2.5 | 250 to 1000 |  | COc1cc2ncc(-c3cccc(NS(=O)(=O)CC(C)C)c3)n2cc1S(=O)(=O)C(C)(C)C [Example 280, N-(3-(6-(tert-butylsulfonyl)-7-methoxyimidazo[1,2-a]pyridin-3-yl)phenyl)-2-methylpropane-1-sulfonamide] | 
17 | 2.5 to 20 | 250 to 1000 |  | CCCS(=O)(=O)Nc1cc(-c2cnn3ccc(S(=O)(=O)C(C)(C)C)cc23)ccc1OC [Example 281, N-(5-(5-(tert-butylsulfonyl)pyrazolo[1,5-a]pyridin-3-yl)-2-methoxyphenyl)propane-1-sulfonamide] | 
18 | 2.5 to 20 | 250 to 1000 |  | CCCS(=O)(=O)Nc1cc(OC)cc(-c2cnn3ccc(S(=O)(=O)C(C)(C)C)cc23)c1 [Example 283, N-(3-(5-(tert-butylsulfonyl)pyrazolo[1,5-a]pyridin-3-yl)-5-methoxyphenyl)propane-1-sulfonamide] | 
19 | 1 to 2.5 | 50 to 250 |  | CCCS(=O)(=O)Nc1cc(-c2cnc3cc(OC)c(S(=O)(=O)C(C)(C)C)cn23)cc(F)c1OC(F)F [Example 284, N-(5-(6-(tert-butylsulfonyl)-7-methoxyimidazo[1,2-a]pyridin-3-yl)-2-(difluoromethoxy)-3-fluorophenyl)propane-1-sulfonamide] | 
20 | 2.5 to 20 | > 1000 |  | CCCS(=O)(=O)Nc1cc(-c2cnc3cc(OC)c(S(=O)(=O)C(C)(C)C)cn23)cnc1OC(F)F [Example 286, N-(5-(6-(tert-butylsulfonyl)-7-methoxyimidazo[1,2-a]pyridin-3-yl)-2-(difluoromethoxy)pyridin-3-yl)propane-1-sulfonamide] | 
21 | 2.5 to 20 | > 1000 |  | CCCS(=O)(=O)Nc1cc(-c2cnc3cc(OC)c(S(=O)(=O)C4CC4)cn23)ccc1OC [Example 288, N-(5-(6-(cyclopropylsulfonyl)-7-methoxyimidazo[1,2-a]pyridin-3-yl)-2-methoxyphenyl)propane-1-sulfonamide] | 
22 | 2.5 to 20 | 250 to 1000 |  | CCCS(=O)(=O)Nc1cc(COC)cc(-c2cnc3cc(OC)c(S(=O)(=O)C(C)(C)C)cn23)c1 [Example 289, N-(3-(6-(tert-butylsulfonyl)-7-methoxyimidazo[1,2-a]pyridin-3-yl)-5-(methoxymethyl)phenyl) propane-1-sulfonamide] | 
23 | 2.5 to 20 | > 1000 |  | CCCS(=O)(=O)Nc1cc(-c2cnc3cc(OC)c(S(=O)(=O)C(C)(C)C)cn23)cc(C)c1F [Example 290, N-(5-(6-(tert-butylsulfonyl)-7-methoxyimidazo[1,2-a]pyridin-3-yl)-2-fluoro-3-methylphenyl)propane-1-sulfonamide] | 
24 | 2.5 to 20 | 250 to 1000 |  | CCCS(=O)(=O)Nc1cc(-c2cnc3cc(OC)c(S(=O)(=O)C(C)(C)C)cn23)ccc1F [Example 291, N-(5-(6-(tert-butylsulfonyl)-7-methoxyimidazo[1,2-a]pyridin-3-yl)-2-fluorophenyl)propane-1-sulfonamide] | 

Row | Compound | IC50 [1] [nM] | IC50 ([2]; Homo sapiens, THP1-Dual) [nM] | IC50 [2] [nM] | IC50 [1, 3] [nM]
25 | COc1cc2ncc(-c3cccc(NS(C)(=O)=O)c3)n2cc1S(=O)(=O)C(C)(C)C [Example 261, N-(3-(6-(tert-butylsulfonyl)-7-methoxyimidazo[1,2-a]pyridin-3-yl)phenyl)methanesulfon-amide] | 2.5 to 20 | > 1000 |  | 
26 | COc1cc(-c2cnc3cc(OC)c(S(=O)(=O)C(C)(C)C)cn23)cc(NS(C)(=O)=O)n1 [Example 264, N-(4-(6-(tert-butylsulfonyl)-7-methoxyimidazo[1,2-a]pyridin-3-yl)-6-methoxypyridin-2-yl)methanesulfonamide] | 2.5 to 20 | 250 to 1000 |  | 
27 | COc1cc2ncc(-c3cc(F)c(OC)c(NS(C)(=O)=O)c3)n2cc1S(=O)(=O)C(C)(C)C [Example 272, N-(5-(6-(tert-butylsulfonyl)-7-methoxyimidazo[1,2-a]pyridin-3-yl)-3-fluoro-2-methoxyphenyl)methane-sulfonamide] | 1 to 2.5 | 50 to 250 |  | 
28 | CCCS(=O)(=O)Nc1cc(C#N)cc(-c2cnc3cc(OC)c(S(=O)(=O)C(C)(C)C)cn23)c1 [Example 282, N-(3-(6-(tert-butylsulfonyl)-7-methoxyimidazo[1,2-a]pyridin-3-yl)-5-cyanophenyl)propane-1-sulfonamide] | 2.5 to 20 | > 1000 |  | 
29 | COc1cc2ncc(-c3cc(NS(C)(=O)=O)c(OC)c(OC)c3)n2cc1S(=O)(=O)C(C)(C)C [Example 285, N-(5-(6-(tert-butylsulfonyl)-7-methoxyimidazo[1,2-a]pyridin-3-yl)-2,3-dimethoxyphenyl)methane sulfonamide] |  | < 50 |  | < 1
30 | CCCS(=O)(=O)Nc1ccc(F)c(-c2cnc3cc(OC)c(S(=O)(=O)C(C)(C)C)cn23)c1 [Example 287, N-(3-(6-(tert-butylsulfonyl)-7-methoxyimidazo[1,2-a]pyridin-3-yl)-4-fluorophenyl)propane-1-sulfonamide] |  | > 1000 |  | > 20

Reference: patent US20250346593A1, “IMIDAZO(1,2-1)PYRIDINE DERIVATIVES AS RIPK2 INHIBITORS” (Interline Therapeutics, Inc., priority 2022, published 2025)
